The values that follow come from patent US20250019385A1, “SPIROCYCLIC ANNULATED 2-AMINO-3-CYANO THIOPHENES AND DERIVATIVES FOR THE TREATMENT OF CANCER” (Boehringer Ingelheim International GmbH, priority 2023, published 2025).

For the first assay, the system named is SK-CO-1 cells. Kind of assay: SK-CO-1 CTG proliferation assay (120 h) (CRC, G12V). The format is cell-based. The note with it: Homo sapiens. The method, then:
(§1) SK—CO-1 cells (ATCC HTB-39) are dispensed into black 384-well plates, flat and clear bottom (Greiner, PNr. 781091) at a density of 500 cells per well in 60 μl EMEM (Sigma M5650)+10% FCS (fetal calf serum, HyClone, SH30084.03). Cells are incubated overnight at 37° C. in a humidified tissue culture incubator at 5% CO2. Compounds (10 mM stock in DMSO) are added at logarithmic dose series using the ECHO acoustic liquid handler system (Beckman Coulter), normalizing for added DMSO and including DMSO controls. All compound treatments are performed in technical duplicates. For the TO time point measurement, untreated cells are analyzed at the time of compound addition. Plates are incubated for 120 h, and cell viability is measured using CellTiter-Glo luminescent cell viability reagent (Promega product code G7570). Viability (stated as percent of control) is defined as relative luminescence units RLU of each well divided by the RLU of cells in DMSO controls. IC50 values are determined from viability measurements by non-linear regression using a four-parameter model.
(§2) IC50 values of representative compounds according to the invention measured with these assays in the indicated cell lines are presented in Table 46.
In general, IC50 refers to the concentration needed to halve the response being measured. A lower IC50 goes with greater potency. For `C[C@H](Oc1nc(-c2onc3c2CCC[C@@]32CCCc3sc(N)c(C#N)c32)nc2c1n(C)c(=O)n2C12COC(C1)C2)[C@@H]1CCCN1C` [I-15], the IC50 is 0.036 µM.
As to `C[C@H](Oc1nc(-c2onc3c2CCC[C@@]32CCCc3sc(N)c(C#N)c32)nc2c1n(C)c(=O)n2[C@H]1CCCOC1)[C@@H]1CCCN1C` [I-11], inhibition was half-maximal at 0.445 µM (IC50).
Take `C[C@H](Oc1nc(-c2noc3c2CCC[C@@]32CCCc3sc(N)c(C#N)c32)nc2c1CCO[C@]21CCOC1)[C@@H]1CCCN1C` [II-9b]: 0.009 µM corresponded to half-maximal inhibition (IC50).
Take `CCn1c(=O)n([C@@H]2CCCOC2)c2nc(-c3onc4c3CCC[C@@]43CCCc4sc(N)c(C#N)c43)nc(O[C@@H](C)[C@@H]3CCCN3C)c21` [I-30]: the half-maximal inhibitory concentration (IC50) came out at 0.011 µM.
Compound `C[C@H](Oc1nc(-c2onc3c2CCC[C@@]32CCCc3sc(N)c(C#N)c32)nc2c1[nH]c(=O)n2[C@@H]1CCOC1)[C@@H]1CCCN1C` [I-8] displayed a half-maximal inhibitory concentration (IC50) of 0.019 µM.
For the compound `C[C@H](Oc1nc(-c2onc3c2CCC[C@@]32CCCc3sc(N)c(C#N)c32)nc2c1n(C)c(=O)n2[C@@H]1CCOC1)[C@@H]1C[C@@H](F)CN1C` [I-22], the IC50 was 0.009 µM.
Compound `C[C@H](Oc1nc(-c2onc3c2CCC[C@@]32CCCc3sc(N)c(C#N)c32)nc2c1n(C)c(=O)n2[C@@H]1CCOC1)[C@@H]1[C@@H](F)CCN1C` [I-5] came in with a half-inhibitory concentration (IC50) of 0.047 µM.
Compound `CCn1c(=O)n([C@@H]2CCCOC2)c2nc(-c3onc4c3CCC[C@@]43CCCc4sc(N)c(C#N)c43)nc(OCC34CCCN3CCC4)c21` [I-34] yielded a half-inhibitory concentration (IC50) of 0.273 µM.
As to `C[C@@H]1COC[C@H](n2c(=O)n(C)c3c(O[C@@H](C)[C@@H]4CCCN4C)nc(-c4onc5c4CCC[C@@]54CCCc5sc(N)c(C#N)c54)nc32)C1` [I-44], half-maximal inhibition (IC50) was put at 0.005 µM.
Still for that read-out and setting: as for `C[C@H](Oc1nc(-c2onc3c2CCC[C@@]32CCCc3sc(N)c(C#N)c32)nc2c1n(C)c(=O)n2[C@@]12COC[C@@H]1C2)[C@@H]1CC[C@H](C)N1C` [I-45], the figure is 0.004 µM; as for `CCn1c(=O)n([C@@H]2CCOC2)c2nc(-c3onc4c3CCC[C@@]43CCCc4sc(N)c(C#N)c43)nc(O[C@@H](C)[C@@H]3CCCN3C)c21` [I-21], 0.005 µM.
The compound `C[C@H](Oc1nc(-c2onc3c2CCC[C@@]32CCCc3sc(N)c(C#N)c32)nc2c1n(C)c(=O)n2[C@@H]1CCOC1)[C@@H]1C[C@H](F)CN1C` [I-27] had a concentration for half-maximal inhibition (IC50) of 0.055 µM.
`C[C@H](Oc1nc(-c2onc3c2CCC[C@@]32CCCc3sc(N)c(C#N)c32)nc2c1n(C)c(=O)n2C1CCOCC1)[C@@H]1CCCN1C` [I-10]: it took 0.069 µM to reach half-maximal inhibition (IC50).

The test system of a further assay is NCI-H727 cells. Kind of assay: NCI-H727 CTG proliferation assay (120 h) (lung cancer, G12V). Type of assay: cell-based. As to conditions: Homo sapiens. The protocol:
as §1, with “NCI-H727” for “SK—CO-1”, “No. CRL-5815)” for “HTB-39)”, “RPMI ATCC-Formulation (PAN P04-18047)+10%” for “EMEM (Sigma M5650)+10%”
as §2
Compound `C[C@H](Oc1nc(-c2onc3c2CCC[C@@]32CCCc3sc(N)c(C#N)c32)nc2c1n(C)c(=O)n2C12COC(C1)C2)[C@@H]1CCCN1C` [I-15] came in with an IC50 of 0.014 µM.
`C[C@H](Oc1nc(-c2onc3c2CCC[C@@]32CCCc3sc(N)c(C#N)c32)nc2c1n(C)c(=O)n2[C@H]1CCCOC1)[C@@H]1CCCN1C` [I-11] registered an IC50 of 0.497 µM.
Compound `C[C@H](Oc1nc(-c2noc3c2CCC[C@@]32CCCc3sc(N)c(C#N)c32)nc2c1CCO[C@]21CCOC1)[C@@H]1CCCN1C` [II-9b] yielded a 50% inhibitory concentration (IC50) of 0.004 µM.
`CCn1c(=O)n([C@@H]2CCCOC2)c2nc(-c3onc4c3CCC[C@@]43CCCc4sc(N)c(C#N)c43)nc(O[C@@H](C)[C@@H]3CCCN3C)c21` [I-30] showed an IC50 of 0.006 µM.
`C[C@H](Oc1nc(-c2onc3c2CCC[C@@]32CCCc3sc(N)c(C#N)c32)nc2c1[nH]c(=O)n2[C@@H]1CCOC1)[C@@H]1CCCN1C` [I-8] yielded a 50% inhibitory concentration (IC50) of 0.012 µM.
Still for that read-out and setting: the same measure for `C[C@H](Oc1nc(-c2onc3c2CCC[C@@]32CCCc3sc(N)c(C#N)c32)nc2c1n(C)c(=O)n2[C@@H]1CCOC1)[C@@H]1C[C@@H](F)CN1C` [I-22]: 0.006 µM; for `C[C@H](Oc1nc(-c2onc3c2CCC[C@@]32CCCc3sc(N)c(C#N)c32)nc2c1n(C)c(=O)n2[C@@H]1CCOC1)[C@@H]1[C@@H](F)CCN1C` [I-5]: 0.018 µM; for `CCn1c(=O)n([C@@H]2CCCOC2)c2nc(-c3onc4c3CCC[C@@]43CCCc4sc(N)c(C#N)c43)nc(OCC34CCCN3CCC4)c21` [I-34]: 0.282 µM.
In the case of `C[C@@H]1COC[C@H](n2c(=O)n(C)c3c(O[C@@H](C)[C@@H]4CCCN4C)nc(-c4onc5c4CCC[C@@]54CCCc5sc(N)c(C#N)c54)nc32)C1` [I-44], the 50% inhibitory concentration (IC50) came to 0.002 µM.
`C[C@H](Oc1nc(-c2onc3c2CCC[C@@]32CCCc3sc(N)c(C#N)c32)nc2c1n(C)c(=O)n2[C@@]12COC[C@@H]1C2)[C@@H]1CC[C@H](C)N1C` [I-45] displayed an IC50 of 0.001 µM.
Same read-out and setting: the same measure for `CCn1c(=O)n([C@@H]2CCOC2)c2nc(-c3onc4c3CCC[C@@]43CCCc4sc(N)c(C#N)c43)nc(O[C@@H](C)[C@@H]3CCCN3C)c21` [I-21]: 0.004 µM; for `C[C@H](Oc1nc(-c2onc3c2CCC[C@@]32CCCc3sc(N)c(C#N)c32)nc2c1n(C)c(=O)n2[C@@H]1CCOC1)[C@@H]1C[C@H](F)CN1C` [I-27]: 0.021 µM; for `C[C@H](Oc1nc(-c2onc3c2CCC[C@@]32CCCc3sc(N)c(C#N)c32)nc2c1n(C)c(=O)n2C1CCOCC1)[C@@H]1CCCN1C` [I-10]: 0.108 µM.

The subject of the next assay is Ba/F3 cells KRAS G12D. Kind of assay: Ba/F3 proliferation assay (KRAS G12D). Type of assay: cell-based. The note with it: Mus musculus, BaF3, 72 h, AlamarBlue viability. The method, then: Ba/F3 cells are ordered from DSMZ (ACC300, Lot17) and grown in RPMI-1640 (ATCC 30-2001)+10% FCS+10 ng/mL IL-3 at 37° C. in 5% […] atmosphere. Plasmids containing KRASG12 mutants (i.e. […], G12C, G12V) are obtained from GeneScript. To generate KRASG12-dependent Ba/F3 models, Ba/F3 cells are transduced with retroviruses containing vectors that harbor KRASG12 isoforms. Platinum-E cells (Cell Biolabs) are used for retrovirus packaging. Retrovirus is added to Ba/F3 cells. To ensure infection, 4 μg/mL polybrene is added and cells are spinfected. Infection efficiency is confirmed by measuring GFP-positive cells using a cell analyzer. Cells with an infection efficiency of 10% to 20% are further cultivated and puromycin selection with 1 μg/mL is initiated. As a control, parental Ba/F3 cells are used to show selection status. Selection is considered successful when parental Ba/F3 cells cultures died. To evaluate the transforming potential of KRASG12 mutations, the growth medium is no longer supplemented with IL-3. Ba/F3 cells harboring the empty vector are used as a control. Approximately ten days before conducting the experiments, puromycin is left out.
For proliferation assays, Ba/F3 cells are seeded into 384-well plates at 1.5×1 (M cells/60 μL in growth media (RPMI-1640+10% FCS). Compounds (10 mM stock in DMSO) are added at logarithmic dose series using the ECHO acoustic liquid handler system (Beckman Coulter), normalizing for added DMSO and including DMSO controls. All compound treatments are performed in technical duplicates. For the TO time point measurement, untreated cells are analyzed at the time of compound addition. Treated cells are incubated for 72 h at 37° C. with 5% CO2 and cell viability is measured in the PerkinElmer Envision Multimode Reader using AlamarBlue™ (ThermoFisher) viability stain. Viability (stated as percent of control) is defined as relative fluorescence units RFU of each well divided by the RFU of cells in DMSO controls. IC50 values are determined from viability measurements by non-linear regression using a four-parameter model.
For the compound `C[C@H](Oc1nc(-c2onc3c2CCC[C@@]32CCCc3sc(N)c(C#N)c32)nc2c1n(C)c(=O)n2C12COC(C1)C2)[C@@H]1CCCN1C` [I-15], it took 0.051 µM to reach half-maximal inhibition (IC50).
For the compound `C[C@H](Oc1nc(-c2onc3c2CCC[C@@]32CCCc3sc(N)c(C#N)c32)nc2c1n(C)c(=O)n2[C@H]1CCCOC1)[C@@H]1CCCN1C` [I-11], the IC50 is 0.344 µM.
The compound `C[C@H](Oc1nc(-c2noc3c2CCC[C@@]32CCCc3sc(N)c(C#N)c32)nc2c1CCO[C@]21CCOC1)[C@@H]1CCCN1C` [II-9b] had an IC50 of 0.008 µM.
The compound `CCn1c(=O)n([C@@H]2CCCOC2)c2nc(-c3onc4c3CCC[C@@]43CCCc4sc(N)c(C#N)c43)nc(O[C@@H](C)[C@@H]3CCCN3C)c21` [I-30] came in with a 50% inhibitory concentration (IC50) of 0.029 µM.
`C[C@H](Oc1nc(-c2onc3c2CCC[C@@]32CCCc3sc(N)c(C#N)c32)nc2c1[nH]c(=O)n2[C@@H]1CCOC1)[C@@H]1CCCN1C` [I-8]: half-maximal inhibition (IC50) required 0.107 µM.
On the same count and under the same terms, as for `C[C@H](Oc1nc(-c2onc3c2CCC[C@@]32CCCc3sc(N)c(C#N)c32)nc2c1n(C)c(=O)n2[C@@H]1CCOC1)[C@@H]1C[C@@H](F)CN1C` [I-22], the figure is 0.022 µM; as for `C[C@H](Oc1nc(-c2onc3c2CCC[C@@]32CCCc3sc(N)c(C#N)c32)nc2c1n(C)c(=O)n2[C@@H]1CCOC1)[C@@H]1[C@@H](F)CCN1C` [I-5], 0.068 µM; as for `CCn1c(=O)n([C@@H]2CCCOC2)c2nc(-c3onc4c3CCC[C@@]43CCCc4sc(N)c(C#N)c43)nc(OCC34CCCN3CCC4)c21` [I-34], 3.02 µM.
Regarding `C[C@@H]1COC[C@H](n2c(=O)n(C)c3c(O[C@@H](C)[C@@H]4CCCN4C)nc(-c4onc5c4CCC[C@@]54CCCc5sc(N)c(C#N)c54)nc32)C1` [I-44], the concentration for half-maximal inhibition (IC50) was determined as 0.017 µM.
On the same count and under the same terms, the same measure for `C[C@H](Oc1nc(-c2onc3c2CCC[C@@]32CCCc3sc(N)c(C#N)c32)nc2c1n(C)c(=O)n2[C@@]12COC[C@@H]1C2)[C@@H]1CC[C@H](C)N1C` [I-45]: 0.006 µM; for `CCn1c(=O)n([C@@H]2CCOC2)c2nc(-c3onc4c3CCC[C@@]43CCCc4sc(N)c(C#N)c43)nc(O[C@@H](C)[C@@H]3CCCN3C)c21` [I-21]: 0.021 µM; for `C[C@H](Oc1nc(-c2onc3c2CCC[C@@]32CCCc3sc(N)c(C#N)c32)nc2c1n(C)c(=O)n2[C@@H]1CCOC1)[C@@H]1C[C@H](F)CN1C` [I-27]: 0.055 µM.
Still for that read-out and setting: as for `C[C@H](Oc1nc(-c2onc3c2CCC[C@@]32CCCc3sc(N)c(C#N)c32)nc2c1n(C)c(=O)n2C1CCOCC1)[C@@H]1CCCN1C` [I-10], the figure is 0.118 µM.
